Experimental data reported in patent US10638756B2, “Molecules having pesticidal utility, and intermediates, compositions, and processes, related thereto” (Dow AgroSciences LLC, priority 2017, dated 2020).

Columns and labels:
Format in all cases: in vivo
[1] = test system: Cabbage Looper (Trichoplusia ni); assay: Bioassay on Cabbage Looper (CL), 128-well diet tray assay; conditions: 168 h, 50 μg/cm^2 on artificial diet, second instar larvae, five to seven days, read-out: CL % Control (or Mortality) rating
Outline: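 Each of eight wells receives artificial diet treated at 50 μg/cm^2 with the test molecule, then one to five second-instar larvae. Incubation runs five to seven days at 25° C with a 14:10 light-dark cycle under vented covers. Mortality is scored per well as a percentage and averaged.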

[2] = test system: Beet Armyworm (Spodoptera exigua); assay: Bioassay on Beet Armyworm (BAW), 128-well diet tray assay; conditions: Spodoptera exigua, 168 h; 50 μg/cm^2 on artificial diet, second instar larvae, five to seven days; read-out: BAW % Control (or Mortality) rating
[3] = test system: Yellow Fever Mosquito (Aedes aegypti); conditions: about 1 day-old larvae, 3 days, scored on mortality
Procedure: Certain molecules disclosed in this document were tested against YFM using procedures described in the following paragraph. In the reporting of the results, the “GPA & YFM Rating Table” was used (See Table Section).
Master plates containing 400 μg of a molecule dissolved in 100 μL of dimethyl sulfoxide (DMSO) (equivalent to a 4000 ppm solution) are used. A master plate of assembled molecules contains 15 μL per well. To this plate, 135 μL of a 90:10 water/acetone mixture is added to each well. A robot (Biomek® NXP Laboratory Automation Workstation) is programmed to dispense 15 μL aspirations from the master plate into an empty 96-well shallow plate (“daughter” plate). There are 6 reps (“daughter” plates) created per master. The created “daughter” plates are then immediately infested with YFM larvae.
The day before plates are to be treated, mosquito eggs are placed in Millipore water containing liver powder to begin hatching (4 g. into 400 mL). After the “daughter” plates are created using the robot, they are infested with 220 μL of the liver powder/larval mosquito mixture (about 1 day-old larvae). After plates are infested with mosquito larvae, a non-evaporative lid is used to cover the plate to reduce drying. Plates are held at room temperature for 3 days prior to grading. After 3 days, each well is observed and scored based on mortality. The results are indicated in the table entitled “Table ABC: Biological Results” (See Table Section).

Structure (SMILES)	mortality at 50 µg/cm2 [1]	mortality at 50 µg/cm2 [2]	YFM % Control (or Mortality) rating [3]
O=C(NNc1ncccc1Cl)c1ccc(/C(F)=C/C(c2cc(Cl)c(Cl)c(Cl)c2)C(F)(F)F)cc1C(F)(F)F (stereo not drawn) [F99, (Z)—N′-(3-Chloropyridin-2-yl)-4-(1,4,4,4-tetrafluoro-3-(3,4,5-trichlorophenyl)but-1-en-1-yl)-2-(trifluoromethyl)benzohydrazide]	50 to 100%	50 to 100%	A (80-100)
N#Cc1ccc(/C(F)=C/C(c2cc(Cl)c(Cl)c(Cl)c2)C(F)(F)F)cc1C(F)(F)F (stereo not drawn) [C25, (Z)-4-(1,4,4,4-Tetrafluoro-3-(3,4,5-trichlorophenyl)but-1-en-1-yl)-2-(trifluoromethyl)benzonitrile]	50 to 100%	50 to 100%	A (80-100)
O=C(NNc1ncccn1)c1ccc(/C(F)=C/C(c2cc(Br)cc(Br)c2)C(F)(F)F)cc1C(F)(F)F (stereo not drawn) [F176, (Z)-4-(3-(3,5-Dibromophenyl)-1,4,4,4-tetrafluorobut-1-en-1-yl)-N′-(pyrimidin-2-yl)-2-(trifluoromethyl)benzohydrazide]	50 to 100%	50 to 100%	A (80-100)
O=C(NNc1ncccn1)c1ccc(/C(F)=C/C(c2ccc(Cl)c(Cl)c2)C(F)(F)F)cc1C(F)(F)F (stereo not drawn) [F117]	50 to 100%	50 to 100%	A (80-100)
O=C(NNc1ccccn1)c1ccc(/C(F)=C/C(c2cc(Cl)c(Cl)c(Cl)c2)C(F)(F)F)cc1C(F)(F)F (stereo not drawn) [F9, (Z)—N′-(Pyridin-2-yl)-4-(1,4,4,4-tetrafluoro-3-(3,4,5-trichlorophenyl)but-1-en-1-yl)-2-(trifluoromethyl)benzohydrazide]	50 to 100%	50 to 100%	A (80-100)
O=C(NNCc1ccccc1)c1ccc(/C(F)=C/C(c2cc(Cl)c(Cl)c(Cl)c2)C(F)(F)F)cc1C(F)(F)F (stereo not drawn) [F54, (Z)—N′-Benzyl-4-(1,4,4,4-tetrafluoro-3-(3,4,5-trichlorophenyl)but-1-en-1-yl)-2-(trifluoromethyl)benzohydrazide]	50 to 100%	50 to 100%	A (80-100)
O=C(NNc1ncccn1)c1ccc(/C(F)=C/C(c2cc(Cl)c(Cl)c(Cl)c2)C(F)(F)F)cc1Br (stereo not drawn) [F128, (Z)-2-Bromo-N′-(pyrimidin-2-yl)-4-(1,4,4,4-tetrafluoro-3-(3,4,5-trichlorophenyl)but-1-en-1-yl)benzohydrazide]	50 to 100%	50 to 100%	A (80-100)
O=C(NNc1nnn[nH]1)c1ccc(/C(F)=C/C(c2cc(Cl)c(Cl)c(Cl)c2)C(F)(F)F)cc1C(F)(F)F (stereo not drawn) [F95, (Z)-4-(1,4,4,4-Tetrafluoro-3-(3,4,5-trichlorophenyl)but-1-en-1-yl)-N′-(1H-tetrazol-5-yl)-2-(trifluoromethyl)benzohydrazide]	50 to 100%	50 to 100%	A (80-100)
CN(NC(=O)c1ccc(/C(F)=C/C(c2cc(Cl)c(Cl)c(Cl)c2)C(F)(F)F)cc1C(F)(F)F)c1nccs1 (stereo not drawn) [F158, (Z)—N′-methyl-4-(1,4,4,4-tetrafluoro-3-(3,4,5-trichlorophenyl)but-1-en-1-yl)-N′-(thiazol-2-yl)-2-(trifluoromethyl)benzohydrazide]	50 to 100%	50 to 100%	A (80-100)
Cc1cc(F)ccc1NNC(=O)c1ccc(/C(F)=C/C(c2cc(Cl)c(Cl)c(Cl)c2)C(F)(F)F)cc1C(F)(F)F (stereo not drawn) [F35, (Z)—N′-(4-Fluoro-2-methylphenyl)-4-(1,4,4,4-tetrafluoro-3-(3,4,5-trichlorophenyl)but-1-en-1-yl)-2-(trifluoromethyl)benzohydrazide]	50 to 100%	50 to 100%	A (80-100)
CN(NC(=O)c1ccc(/C(F)=C/C(c2cc(Cl)c(Cl)c(Cl)c2)C(F)(F)F)cc1C(F)(F)F)c1ccc(C#N)cn1 (stereo not drawn) [F82, (Z)—N′-(5-Cyanopyridin-2-yl)-N′-methyl-4-(1,4,4,4-tetrafluoro-3-(3,4,5-trichlorophenyl)but-1-en-1-yl)-2-(trifluoromethyl)benzohydrazide]	50 to 100%	50 to 100%	A (80-100)
COc1ccc(NNC(=O)c2ccc(/C(F)=C/C(c3cc(Cl)c(Cl)c(Cl)c3)C(F)(F)F)cc2C(F)(F)F)cc1 (stereo not drawn) [F126, (Z)—N′-(4-Methoxyphenyl)-4-(1,4,4,4-tetrafluoro-3-(3,4,5-trichlorophenyl)but-1-en-1-yl)-2-(trifluoromethyl)benzohydrazide]	50 to 100%	50 to 100%	A (80-100)
O=C(NN1CCS(=O)(=O)CC1)c1ccc(/C(F)=C/C(c2cc(Cl)c(Cl)c(Cl)c2)C(F)(F)F)cc1C(F)(F)F (stereo not drawn) [F122, (Z)—N-(1,1-dioxidothiomorpholino)-4-(1,4,4,4-tetrafluoro-3-(3,4,5-trichlorophenyl)but-1-en-1-yl)-2-(trifluoromethyl)benzamide]	50 to 100%	50 to 100%	D (No activity noticed in this bioassay)
CN(NC(=O)c1ccc(/C(F)=C/C(c2cc(Cl)c(Cl)c(Cl)c2)C(F)(F)F)cc1C(F)(F)F)c1ccccc1 (stereo not drawn) [F11, (Z)—N′-Methyl-N′-phenyl-4-(1,4,4,4-tetrafluoro-3-(3,4,5-trichlorophenyl)but-1-en-1-yl)-2-(trifluoromethyl)benzohydrazide]	50 to 100%	50 to 100%	A (80-100)
O=C(NNc1ncccn1)c1ccc(/C(F)=C/C(c2cc(Cl)c(Br)c(Cl)c2)C(F)(F)F)cc1C(F)(F)F (stereo not drawn) [F172, (Z)-4-(3-(4-Bromo-3,5-dichlorophenyl)-1,4,4,4-tetrafluorobut-1-en-1-yl)-N′-(pyrimidin-2-yl)-2-(trifluoromethyl)benzohydrazide]	50 to 100%	50 to 100%	A (80-100)
O=C(NNc1ccc(F)cc1)c1ccc(/C(F)=C/C(c2cc(Cl)c(Cl)c(Cl)c2)C(F)(F)F)cc1C(F)(F)F (stereo not drawn) [F52]	50 to 100%	50 to 100%	A (80-100)
CN(NC(=O)c1ccc(/C(F)=C/C(c2ccc(Cl)c(Cl)c2)C(F)(F)F)cc1C(F)(F)F)c1ncccn1 (stereo not drawn) [F8, (Z)-4-(3-(3,4-Dichlorophenyl)-1,4,4,4-tetrafluorobut-1-en-1-yl)-N′-methyl-N′-(pyrimidin-2-yl)-2-(trifluoromethyl)benzohydrazideazide]	50 to 100%	50 to 100%	A (80-100)
N#Cc1ccc(NNC(=O)c2ccc(/C(F)=C/C(c3cc(Cl)c(Cl)c(Cl)c3)C(F)(F)F)cc2C(F)(F)F)cc1 (stereo not drawn) [F111, (Z)—N′-(4-Cyanophenyl)-4-(1,4,4,4-tetrafluoro-3-(3,4,5-trichlorophenyl)but-1-en-1-yl)-2-(trifluoromethyl)benzohydrazide]	50 to 100%	50 to 100%	A (80-100)
C=CCN(NC(=O)c1ccc(/C(F)=C/C(c2cc(Cl)c(Cl)c(Cl)c2)C(F)(F)F)cc1C(F)(F)F)c1ncccn1 (stereo not drawn) [F152, (Z)—N′-Allyl-N′-(pyrimidin-2-yl)-4-(1,4,4,4-tetrafluoro-3-(3,4,5-trichlorophenyl)but-1-en-1-yl)-2-(trifluoromethyl)benzohydrazide]	50 to 100%	50 to 100%	A (80-100)
O=C(NNc1ccccc1)c1ccc(/C(F)=C/C(c2cc(Cl)c(Cl)c(Cl)c2)C(F)(F)F)cc1C(F)(F)F (stereo not drawn) [F133, (Z)—N′-Phenyl-4-(1,4,4,4-tetrafluoro-3-(3,4,5-trichlorophenyl)but-1-en-1-yl)-2-(trifluoromethyl)benzohydrazide]	50 to 100%	50 to 100%	A (80-100)
N#Cc1cccc(NNC(=O)c2ccc(/C(F)=C/C(c3cc(Cl)c(Cl)c(Cl)c3)C(F)(F)F)cc2C(F)(F)F)c1 (stereo not drawn) [F100, (Z)—N′-(3-Cyanophenyl)-4-(1,4,4,4-tetrafluoro-3-(3,4,5-trichlorophenyl)but-1-en-1-yl)-2-(trifluoromethyl)benzohydrazide]	50 to 100%	50 to 100%	A (80-100)
O=C(NNc1ncccn1)c1ccc(/C(F)=C/C(c2cc(Cl)cc(Cl)c2)C(F)(F)F)cc1C(F)(F)F (stereo not drawn) [F56, (Z)-4-(3-(3,5-Dichlorophenyl)-1,4,4,4-tetrafluorobut-1-en-1-yl)-N′-(pyrimidin-2-yl)-2-(trifluoromethyl)benzohydrazide]	50 to 100%	50 to 100%	A (80-100)
